Entries after “also recorded” stand apart in the source; their conditions may differ.
Columns and labels:
T-cell = T-cell proliferation (3H thymidine incorporation) of lymph node lymphocytes from mice immunized with MUC1-based liposomal vaccine adjuvanted with Lipid-A analog; assay type: in vivo, C57-Black mice; conditions: for T-cell-Proliferation (CPM): s.c. liposomal vaccine 40 μg BP1-148 + 20 μg Lipid-A analog per dose, nine days after injection, boosting antigen BP1-151; for T-cell blastogenesis: in words, liposomal vaccine formulations in mice, FIG. 31-FIG. 33
Description: (§1) Typically, the liposomal formulation was composed of 400 μg of MUC1-based lipopeptide BP1-148, H2N-[…](Pal)G-OH, 200 μg of Lipid-A analog, 6.94 mg of cholesterol, 1.46 mg of dimyristoyl phosphatidylglycerol ([…]) and 11.62 mg of dipalmitoyl phosphatidylcholine (DPPC) per 1 ml of saline (0.9% NaCl solution).
(§2) The liposomal constructs were formulated by first dissolving the phospholipids, cholesterol and Lipid A analog in tert-butanol at about 53° C. Lipopeptide and water (5%, v/v) were then added to the tert-butanol solution. The resulting clear 95% tert-butanol solution was injected into about 4 volumes of rapidly stirred water at about 50° C., using a glass syringe with an 18-gauge needle. The small unilamellar vesicles (SUV) formed in this process were cooled, sterilized by filtration through a 0.22 μm membrane filter, filled into vials and lyophilized. The dry powder was re-hydrated with sterile saline before injection, resulting in the formation of multilamellar large vesicles (MLV). The liposomes formed are used to immunize mice.
(§3) Groups of C57-Black mice were immunized subcutaneously with the liposomal vaccine containing 40 μg of MUC1-based lipopeptide BP1-148 (FIG. 34), which has the peptide sequence of H2N-[…](Pal) G-OH, and 20 μg of Lipid-A analog per dose. Nine days after vaccine injection mice were sacrificed and lymphocytes were taken from the draining lymph nodes (local response) or from the spleens (systemic response) to determine the immune response in each group. The lymphocytes taken from immunized mice were incubated in in vitro cultures in the presence of MUC1-based boosting antigen BP1-151, which has the peptide sequence H2N-[…]-OH.
T-cell proliferation was evaluated using a standard ^3H thymidine incorporation assay. Briefly, nylon wool passed inguinal lymph node lymphocytes from each mouse were added to a culture containing 106 native mitomycin C treated syngeneic splenocytes, which serves as antigen presenting cells (APCs). To each well 20 μg of MUC1-based boosting peptide BP1-151, H2N-[…]-OH (single letter amino acid code, Table 8), was added for positive control; and cultures containing no antigen or peptide BP1-72, which has the peptide sequence H2N-[…]-OH, were used as negative control. The culture was incubated for 72 h in a total volume of 250 μl well, followed by adding 1 μCi of ^3H-thymidine in a volume of 50 μl. The plates were incubated for an additional 18-20 h. Cells were harvested and [^3H]dTh incorporation was measured by liquid scintillation counter. T-cell proliferation results corresponding to various liposomal vaccines adjuvanted, with different Lipid-A analogs are summarized in Tables 1-Table 3 and FIG. 31-FIG. 33.

Interferon-gamma (IFN-γ) = Interferon-gamma (IFN-γ) production in cell culture supernatants by ELISA, lymphocytes of mice immunized with adjuvanted MUC1 liposomal vaccine; assay type: in vivo, C57-Black mice; conditions: for Interferon-gamma (IFN-γ, pg/ml): s.c. liposomal vaccine 40 μg BP1-148 + 20 μg Lipid-A analog per dose, nine days after injection; for interferon-gamma production: in words, liposomal vaccine formulations in mice, FIG. 31-FIG. 33
Description: as §1, §2, §3
Interferon-gamma (IFN-γ) levels were determined in the cell culture supernatants using enzyme-linked immunoabsorbent assay (ELISA). 96-Well plates were coated with 50 μl of catcher Mabs in 50 μl of R4.6AZ at 37° C. for 30 min. The plates were then washed and incubated with test samples for 45 min. After two washes the second biotinylated antibody, XMG1.2 was added. After washing, peroxidase-conjugated streptavidin was added and incubated again for 30 min. Finally, 100 μl of horseradish peroxidase (HRPO) substrate solution was added. The optical density was measured with a Thermomax ELISA reader at 405 nm wavelength in kinetic mode for 10 min. The interferon-gamma (IFN-γ) levels corresponding to various Lipid-A analogs are shown in Table 1-Table 3 and FIG. 31-FIG. 33.

[1] = tested on: immune response to MUC1-based lipopeptide BP1-148; test: Adjuvanticity of Lipid-A analogs in liposomal vaccine with MUC1 lipopeptide BP1-148 (T-cell blastogenesis and IFN-γ production); assay type: in vivo, mice; conditions: in words; liposomal formulations with BP1-148 in mice, FIGS. 31-33
Description: Liposome formulations have been used to evaluate the adjuvant properties of various synthetic Lipid-A structures and the immune responses to a synthetic lipopeptide antigen BP-148, H2N-[…](Pal)G-OH (FIG. 34), a modified 25-amino-acid sequence derived from tumor-associated MUC1 mucin. The commercially available Lipid-A product, which is currently under clinical evaluation as an adjuvant for vaccine programs, was used for comparison. The natural Lipid-A product, purchased from AVANTI, contained a mixture of Lipid-A analogs extracted from Salmonella bacterial cell wall and is designated as Natural Lipid-A in this invention.
Thus, the liposomal formulations containing the synthetic lipopeptide antigen, BP1-148, and Lipid-A analogs 33, 48, 54, 58, 70, 77, 86, 94, 102, 104 or Natural Lipid-A, were used to immunize mice to measure their immune response in terms of T-cell blastogenesis and interferon-gamma (IFN-γ) production. The compounds were tested in three groups at different time and their preliminary results are shown separately in FIGS. 31-33. As the variations are attributed to different factors such as animal groups and experimental factors, the data from different groups will not be compared.
as §3

Structure (SMILES) | T-cell-Proliferation (CPM) (T-cell; Table 3, third test group) | T-cell blastogenesis (T-cell) | Interferon-gamma (IFN-γ, pg/ml) (Interferon-gamma (IFN-γ); Table 3, third test group) [pg/mL] | interferon-gamma production (Interferon-gamma (IFN-γ)) | T-cell-Proliferation (CPM) (T-cell; Table 2, second test group) | Interferon-gamma (IFN-γ, pg/ml) (Interferon-gamma (IFN-γ); Table 2, second test group) [pg/mL] | adjuvant activity compared to Natural Lipid-A (Lipid-A preparation of bacterial origin) [1]
CCCCCCCCCCCCO[C@H](CCCCCCCCCCC)CC(=O)N[C@H]1[C@H](OC[C@H]2OC(O)[C@H](NC(=O)C[C@@H](CCCCCCCCCCC)OCCCCCCCCCCCC)[C@@H](OC(=O)C[C@H](O)CCCCCCCCCCC)[C@@H]2O)O[C@H](CO)[C@@H](OP(=O)(O)O)[C@@H]1OC(=O)C[C@@H](CCCCCCCCCCC)OCCCCCCCCCCCC (stereo partly drawn) [Compound 94, 2-Deoxy-6-O-{2-deoxy-4-O-phosphono-2-[(3R)-3-dodecyloxytetradecanamido]-3-O-[(3R)-3-dodecyloxytetradecanoyl]-β-D-glucopyranosyl}-3-O-[(3R)-3-hydroxytetradecanoyl]-2-[(3R)-3-dodecyloxytetradecanamido]-α/β-D-glucopyranose] | 10882 | significant T-cell blastogenesis | 2150 | low |  |  | 
CCCCCCCCCCCCCC(=O)O[C@H](CCCCCCCCCCC)CC(=O)N[C@H]1[C@H](OC[C@H]2OC(O)[C@H](NC(=O)C[C@@H](CCCCCCCCCCC)OC(=O)CCCCCCCCCCCCC)[C@@H](O)[C@@H]2O)O[C@H](CO)[C@@H](OP(=O)(O)O)[C@@H]1OC(=O)C[C@@H](CCCCCCCCCCC)OC(=O)CCCCCCCCCCCCC (stereo partly drawn) [Compound 54, 2-Deoxy-6-O-{2-deoxy-4-O-phosphono-2-[(3R)-3-tetradecanoyloxytetradecanamido]-3-O-[(3R)-3-tetradecanoyloxytetradecanoyl]-β-D-glucopyranosyl}-2-[(3R)-3-tetradecanoyloxytetradecanamido]-α/β-D-glucopyranose] |  | significant T-cell blastogenesis |  | high levels of interferon-gamma | 32976 | 36166 | as effective
CCCCCCCCCCCCO[C@H](CCCCCCCCCCC)CC(=O)N[C@H]1[C@H](OC[C@H]2OC(O)[C@H](NC(=O)C[C@@H](CCCCCCCCCCC)OC(=O)C[C@@H](CCCCCCCCCCC)OCCCCCCCCCCCC)[C@@H](O)[C@@H]2O)O[C@H](CO)[C@@H](OP(=O)(O)O)[C@@H]1OC(=O)C[C@@H](CCCCCCCCCCC)OCCCCCCCCCCCC (stereo partly drawn) [Compound 102, 2-Deoxy-6-O-{2-deoxy-4-O-phosphono-2-[(3R)-3-dodecyloxytetradecanamido]-3-O-[(3R)-3-dodecyloxytetradecanoyl]-β-D-glucopyranosyl}-2-{(3R)-3-[(3R)-3-dodecyloxytetradecanoyloxy]-tetradecanamido}-α/β-D-glucopyranose] | 13389 | significant T-cell blastogenesis | 10587 | high levels of interferon-gamma |  |  | similar; also recorded: as effective
CCCCCCCCCCCCCC(=O)O[C@H](CCCCCCCCCCC)CC(=O)N[C@H]1[C@H](OC[C@H]2OC(O)[C@H](NC(=O)C[C@@H](CCCCCCCCCCC)OC(=O)CCCCCCCCCCCCC)[C@@H](OCCC)[C@@H]2O)O[C@H](CO)[C@@H](OP(=O)(O)O)[C@@H]1OC(=O)C[C@@H](CCCCCCCCCCC)OC(=O)CCCCCCCCCCCCC (stereo partly drawn) [Compound 70, 2-Deoxy-6-O-{2-deoxy-2-[(3R)-3-tetradecanoyloxytetradecanamido]-4-O-phosphono-3-O-[(3R)-3-tetradecanoyloxytetradecanoyl]-β-D-glucopyranosyl}-3-O-propyl-2-[(3R)-3-tetradecanoyloxytetradecanamido]-α/β-D-glucopyranose] |  | significant T-cell blastogenesis |  | high levels of interferon-gamma | 25034 | 17321 | as effective

From US7491707B1, “Synthetic lipid-a-analogs and uses thereof” (Biomira, Inc., priority 1999, dated 2009)
